Broadly, the pIC50 is the negative decadic logarithm of the IC50, by convention in mol/L.

What all share (format): biochemical
For one assay, the target named is T1, IDH2 mutant (R140Q) (Homo sapiens, UniProt P48735, R140Q).
T1 construct: purchased BPS Bioscience 71100-2
T1 sequence (P48735 40-452 R140Q): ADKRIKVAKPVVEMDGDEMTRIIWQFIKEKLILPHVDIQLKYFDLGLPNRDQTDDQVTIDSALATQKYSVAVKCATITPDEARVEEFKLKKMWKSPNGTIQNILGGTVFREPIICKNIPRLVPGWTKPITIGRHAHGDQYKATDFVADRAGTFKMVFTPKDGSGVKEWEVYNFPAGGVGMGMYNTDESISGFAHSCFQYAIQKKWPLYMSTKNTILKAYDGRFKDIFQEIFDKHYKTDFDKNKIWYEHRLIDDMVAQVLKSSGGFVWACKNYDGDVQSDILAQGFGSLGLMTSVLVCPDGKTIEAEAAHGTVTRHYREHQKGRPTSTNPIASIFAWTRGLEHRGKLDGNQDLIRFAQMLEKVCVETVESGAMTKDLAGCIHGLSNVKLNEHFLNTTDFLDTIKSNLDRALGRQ
Put plainly: Mutant IDH2-R140Q Fluorescence Assay (Resazurin based). The following applies: 5 nM IDH2 R140Q, 4 hr pre-incubation, 1 mM α-ketoglutarate, 5 μM NADPH, 2 h. The procedure:
IC50 values of compounds against IDH2 mutant (R140Q) were determined by Resazurin based Fluorescence assay. Assay was performed in Buffer (25 mM Tris HCl, 150 mM NaCl, 10 mM MgCl2, 0.03% BSA, 2 mM 1-mercaptoethanol) where total reaction volume was 12.5 μL in low-volume 384-well plates (Cat #4511, Corning). Serially diluted compounds (3-fold) were pre-incubated with IDH2 R140Q mutant enzyme (5 nM; Cat #71100-2, BPS Bioscience) for 4 hr at RT (25° C.) followed by addition of cocktail of α-ketoglutarate (1 mM; Cat #75892-25G, Sigma), and NADPH (5 μM; Cat # N1630-100MG, Sigma) with buffer in dark at room temperature for 2 h. After 2 h incubation, 6.25 μL detection solution containing Resazurin (30 μM; (Cat #62758-13-8, Sigma) and Diaphorase (40 ug/ml; Cat # D2197-300UN, Sigma) in buffer was added and incubated for 15 min. Readings were taken in a Synergy Neo Plate reader (BioTek, Winooski) at single excitation of 540 nm and emission at 590 nm respectively.
The % activity of test samples was calculated as (Sample−Min)×100/(Max−Min). [Max: DMSO control, complete reaction with enzyme with DMSO and Min: No enzyme with DMSO]. Percent inhibition (100−% activity) was fitted to the “four-parameter logistic model” in XLfit for determination of IC50 values.

The next assay addresses T2, IDH1-WT (Homo sapiens, UniProt O75874).
T2 construct: purchased BPS Bioscience 71075-2
Kind of assay: IDH1-WT Fluorescence Assay (Resazurin based). The following applies: 1 nM IDH1-WT, 200 μM isocitrate, 15 μM NADP+, 30 min at room temperature. The procedure:
IC50 values of compounds against IDH1-WT was determined by Resazurin based Fluorescence assay. Assays were performed in Buffer (50 mM Tris HCl, 10 mM MgCl2, 0.03% BSA, 2 mM ß-mercaptoethanol) where total reaction volume was 25 μL in low-volume 96-well plates. Serially diluted compounds (3-fold) in DMSO (0.5% in final reaction) were incubated with cocktail of isocitrate (200 μM; Cat # I1252-1G, Sigma), NADP^+ (15 μM; Cat # N0505-500MG, Sigma) and buffer for 5 min, following addition of IDH1-WT enzyme (1 nM; Cat #71075-2, BPS Bioscience) and incubated in dark at room temperature for 30 min. After that, 12.5 μL detection solution containing Resazurin (60 μM; Cat #62758-13-8, Sigma) and Diaphorase (40 μg/ml; Cat # D2197-300UN, Sigma) in buffer was added and incubated for 15 min. Readings were taken using a Synergy Neo Plate reader (BioTek, Winooski) at single excitation of 540 nm and emission at 590 nm respectively.
The % (percent) activity of test samples was calculated as (Sample−Min)×100/(Max−Min). [Max: DMSO control, complete reaction with enzyme with DMSO and Min: No enzyme with DMSO]. Percent inhibition (100−% activity) was fitted to the “four-parameter logistic model” in XLfit for determination of IC50 values.

For the next assay, the target named is T3, IDH1 mutant (R132H) (Homo sapiens, UniProt O75874, R132H).
T3 construct: purchased BPS Bioscience 71099-2
Put plainly: Mutant IDH1-R132H Fluorescence Assay (Resazurin based). The following applies: 10 nM IDH1 R132H, 4 mM α-ketoglutarate, NADPH, 1.5 h at room temperature. In a few lines: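 Recombinant IDH1 R132H (10 nM) was run with α-ketoglutarate (4 mM) and NADPH ([…]) for 1.5 h at room temperature in Tris pH buffer with MgCl2, BSA and mercaptoethanol. Remaining NADPH was detected via diaphorase/resazurin fluorescence (ex 540/em 590 nm). IC50 came from a 4-parameter logistic fit.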
(In general: Alamar Blue is a resazurin reagent that responds to reducing activity.)

SMILES strings stand for the structures. pIC50: −log10 of the molar value.

T3 sequence (O75874 whole entry R132H): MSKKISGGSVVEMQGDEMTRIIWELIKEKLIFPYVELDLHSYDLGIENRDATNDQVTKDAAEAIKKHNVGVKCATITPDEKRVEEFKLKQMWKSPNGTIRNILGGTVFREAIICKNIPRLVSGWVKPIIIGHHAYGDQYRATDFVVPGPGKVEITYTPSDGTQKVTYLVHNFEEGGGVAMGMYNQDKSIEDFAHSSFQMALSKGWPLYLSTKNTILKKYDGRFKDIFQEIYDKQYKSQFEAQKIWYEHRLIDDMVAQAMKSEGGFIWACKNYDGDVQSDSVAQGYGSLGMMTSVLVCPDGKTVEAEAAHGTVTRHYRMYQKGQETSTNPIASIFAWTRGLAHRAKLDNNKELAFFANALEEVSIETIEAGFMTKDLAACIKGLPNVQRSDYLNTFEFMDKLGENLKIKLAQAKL
T2 sequence (O75874 whole entry): as the sequence (O75874 whole entry R132H) above, with H132R counted along it

As to `CC[C@H]1COC(=O)N1c1nc(N[C@@H](C)c2cn(-c3ccc(C(F)(F)F)cc3)cn2)nc(OC)n1` [Compound 1.41, (S)-4-ethyl-3-(4-methoxy-6-((S)-1-(1-(4-(trifluoromethyl)phenyl)-1H-imidazol-4-yl)ethylamino)-1,3,5-triazin-2-yl)oxazolidin-2-one], the pIC50 at IDH2 mutant (R140Q) is under 4.30; at IDH1-WT, under 4.30; on IDH1 mutant (R132H), 6.15.

With `CC(C)[C@H]1COC(=O)N1c1ncnc(N[C@@H](C)c2ccc(-c3ccc(Cl)cc3)cn2)n1` [Compound 1.10, (S)-3-(4-((S)-1-(5-(4-chlorophenyl)pyridin-2-yl)ethylamino)-1,3,5-triazin-2-yl)-4-isopropyloxazolidin-2-one], the pIC50 at IDH2 mutant (R140Q) was under 4.30; on IDH1-WT, under 4.52; on IDH1 mutant (R132H), 5.56.

Turning to `Cc1cc([C@H](C)Nc2ncnc(N3C(=O)OC[C@@H]3C(C)C)n2)ncc1-c1ccnc(C(F)(F)F)c1` [Compound 1.21, (S)-4-isopropyl-3-(4-((S)-1-(4-methyl-2′-(trifluoromethyl)-3,4′-bipyridin-6-yl)ethylamino)-1,3,5-triazin-2-yl)oxazolidin-2-one], the values for the pIC50 at IDH2 mutant (R140Q), on IDH1-WT and at IDH1 mutant (R132H) were under 4.30, under 4.30 and 5.85, respectively.

For `CC[C@H]1COC(=O)N1c1nc(C)nc(N[C@@H](C)c2ccc(Oc3ccccc3)c(-c3ccccc3)c2)n1` [Compound 1.82, (S)-4-ethyl-3-(4-methyl-6-((S)-1-(6-phenoxybiphenyl-3-yl)ethylamino)-1,3,5-triazin-2-yl)oxazolidin-2-one], the pIC50 on IDH2 mutant (R140Q) was under 4.30; at IDH1-WT, under 4.30; on IDH1 mutant (R132H) it was 6.38.

As to `CC[C@H]1COC(=O)N1c1ncnc(N[C@@H](C)c2ccc(Oc3ccccc3)cc2)n1` [Compound 1.29, (S)-4-ethyl-3-(4-((S)-1-(4-phenoxyphenyl)ethylamino)-1,3,5-triazin-2-yl)oxazolidin-2-one], the pIC50 at IDH2 mutant (R140Q) is under 4.30; on IDH1-WT, under 4.30; at IDH1 mutant (R132H), 6.31.

For `C[C@H](Nc1ncnc(N2C(=O)OC[C@@H]2c2ccccc2)n1)c1cn(-c2ccc(C(F)(F)F)cc2)cn1` [Compound 1.26, (S)-4-phenyl-3-(4-((S)-1-(1-(4-(trifluoromethyl)phenyl)-1H-imidazol-4-yl)ethylamino)-1,3,5-triazin-2-yl)oxazolidin-2-one], the pIC50 at IDH2 mutant (R140Q) was under 4.30; at IDH1-WT it was under 4.30; on IDH1 mutant (R132H) it was 5.52.

As for `CC(C)[C@H]1COC(=O)N1c1ncnc(N[C@@H](C)c2ccccc2)n1` [Compound 1.37, (S)-4-isopropyl-3-(4-((S)-1-phenylethylamino)-1,3,5-triazin-2-yl)oxazolidin-2-one], the pIC50 at IDH2 mutant (R140Q) was under 4.30; on IDH1-WT it was under 4.30; at IDH1 mutant (R132H), 4.71.

For the compound `CC[C@H]1COC(=O)N1c1nc(C)nc(N[C@@H](C)c2ccc(Oc3ccc(C)cc3)cc2)n1` [Compound 1.83, (S)-4-ethyl-3-(4-methyl-6-((S)-1-(4-(p-tolyloxy)phenyl)ethylamino)-1,3,5-triazin-2-yl)oxazolidin-2-one], the negative logarithm of the IC50 (pIC50) at IDH2 mutant (R140Q) is under 4.30; at IDH1-WT, under 4.30; at IDH1 mutant (R132H) it was 6.47.

The values are drawn from US20200206233A1 (INTEGRAL BIOSCIENCES PRIVATE LIMITED, priority 2018, published 2020).
